Experimental data reported in article PMC11558679, “Artificial Zymogen Based on Protein–Polymer Hybrids” (Biomacromolecules, 2024).
“And” between values parts separate entries of the source, which are not always exact repeats. Identical values can stand only once. Like-named read-outs stand apart in the source and are kept apart here. Square brackets hold non-standard residues; d marks the D form. Peptide text beside a SMILES is read from it. * marks the point of attachment. OEGMA = oligo(ethylene glycol) methacrylate; PEG4 = NCCOCCOCCOCCOCCC(=O)O; Tos = Cc1ccc(S(=O)(=O)*)cc1; Isobutyryl = CC(C)C(=O)*; NHBn = c1ccc(CN*)cc1; Sar = CNCC(=O)O

How the values were obtained:
Type in all cases: biochemical, bovine
native trypsin = molecular target: T1, native trypsin (Bos taurus, UniProt P00760); assay: Inhibition of native trypsin by model peptide inhibitor and macromonomer; conditions: for Ki: substrate Tos-GPR-pNA, 100 mM Tris-HCl and 20 mM CaCl2 (pH 8.0), 37 °C, [TR]0 = 8.4 nM, from secondary plot KM/Vmax app vs [I]0; for Km: read-out: apparent KM
T1 construct: purchased Sigma-Aldrich; host or cells: bovine pancreas
T1 sequence (P00760 24-246): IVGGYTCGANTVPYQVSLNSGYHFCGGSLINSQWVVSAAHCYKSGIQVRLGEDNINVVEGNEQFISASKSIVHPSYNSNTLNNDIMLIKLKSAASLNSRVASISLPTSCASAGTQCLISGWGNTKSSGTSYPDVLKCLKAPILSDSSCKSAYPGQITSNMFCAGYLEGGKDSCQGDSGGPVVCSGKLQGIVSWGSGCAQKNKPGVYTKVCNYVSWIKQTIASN
From the text: (§1) Co mparison of K M of peptide substrates and K i of model peptide inhibitors and ma cro mono mers against native trypsin and chymotrypsin.
(§2) By observing the initial rate of enzyme activity in the presence of th e peptide inhibitor or macromonomer, the K i value of the inhibitor peptide and macromonomers can be determined (Figures S9 for native trypsin,and S14 for native ch ymotrypsin). The apparent KM and Vmax values are obtained b y si multaneousl y mixing nat ive trypsin or ch ymotr ypsin, a peptide substrat e, and a peptide inhibitor, and then monitoring the pNA produced b y enzymatically catal yzed hydrol ysis of the p eptide substrate. The apparent KM and Vmax values were calculated using EnzFitter with Michaelis-Menten curve fitting of substrate against initial velocity plots ( Fi g u re S10 and S12 and Table S1 and S2 for native trypsin, and Figure S15 and S17 and T ab l e S3 and S4 for native ch ymotr ypsin ). The plot of K M ass/Vma x app versus [I]0 or [macromonomers]0 yields a straight line with a y-intercept of K M/Vmax and a slope of K M/(Vmax ·Ki) (Figures S11 and S13 for native tr ypsin and S1 6 and S18 for native ch ymotrypsin, respsctiver y ). The inhibition constant (Ki) of the peptide inhibi tor or macromonomer was calculated b y simply dividing the y -inter cept […]
(1 picture or pasted object on this page, not shown here)
Table S1. Apparent KM a nd Vma x values for native trypsin incubated with Tos-GPR-pNA (substrate) and Tos-GPRP -NHBzl (inhibitor) at 37 °C in 100 mM Tris-HCl and 20 mM CaCl2 buffer (pH 8.0) […]
Buffer: 100 mM Tris-H Cl a nd 20 mM Ca Cl2 (pH 8.0) at 37 °C, [TR]0 = 8.4 nM, [TosGPRpNA]0 = 0 – 302 µ M a nd [TosGP RP Bzl]0 = 0 – 500 µM, Monitor Abs at 412 nm.
Figure S11. Secondary plot with calculated apparent K M and Vmax values were used to determine inhibition constants of the peptide inhibitor towards native trypsin.
Figure S12. Michaelis-Menten Plots adding a the macromonomer containing a CT -cleavable and a TR-inhibiting peptides (T o s GPRPr o -PEG4-AAPFAA OE GMA) to a native trypsin solution.
Table S2. Apparent KM a nd Vma x values for native trypsin incubated with Tos-GPR-pNA (substrate) and the macromonomer containing a CT -cleavable and a TR-inhibiting peptides (TosGPRPro-PEG4-AAPFAA OEGMA) at 37 °C in 100 mM Tris -HCl and 20 mM CaCl2 buffer (pH 8.0) .
Buffer: 100 mM Tris-H Cl a nd 20 mM Ca Cl2 (pH 8.0) at 37 °C, [TR]0 = 8.4 nM, [TosGPRpNA]0 = 0 – 241 µ M a nd [ macro mono mer]0 = 0 – 200 µM, Monitor Abs at 412 nm.

native chymotrypsin = molecular target: T2, native chymotrypsin (Bos taurus, UniProt P00766); assay: Inhibition of native chymotrypsin by model peptide inhibitor and macromonomer; conditions: for KM/Vmax / apparent Vmax / kcat / kcat/KM / Km: [sucAAPFpNA]0 = 0–768 µM; for Km: read-out: apparent KM
T2 construct: α-Chymotrypsin from bovine pancreas, Type II (CT); purchased Sigma-Aldrich; host or cells: bovine pancreas
From the text: as §1, §2
Figure S1 5 .Michaelis -Menten Plots adding a peptide inhibitor to a native c hymot r yps i n s ol ut i on.
Table S3. Apparent KM a nd Vma x values for native […] incubated with suc-AAPF -pNA ( subst r at e) and IB -AAPFSar-OMe (inhibitor) at 37 °C in 100 mM sodium phosphate buffer (pH 8.0) […]
Buffer: 100 mM sodium phosphate (pH 8.0) at 37 °C, [CT]0 = 40 nM, [sucAAPFpNA]0 = 0 – 768 µ M and [IBAAPFSarOMe]0 = 0 – 500 µM, Monitor Abs at 412 nm.
Table S4. Apparent KM a nd Vma x values for native […] incubated with suc-AAPF -pNA ( subst r at e) and macromonomer containing a TR cleavable and CT inhibiting peptides
(IBAAPFSarPEG4GPRGGOEGMA) at 37 °C in 100 mM sodium phosphate buffer (pH 8.0) . […]
macro mono mer]0 = 0 – 400 µM, Monitor Abs at 412 nm.
Figure S18. Michaelis -Menten Plots adding a macromonomer containing a TR cleavable and CT inhibiting peptides (IBAAPFSarPEG4GPRGGOEGMA) to a native chymotrypsin solution.

[1] = Biocatalytic assay (Michaelis–Menten) of TR and TR hybrids with Tos-Gly-Pro-Arg-pNA
Protocol: N-Tosyl-L-Gly-L-Pro-L-Arg-p-nitroanilide was used as a substrate for enzyme bioactivity assays. In a cuvette, 0.1 M Tris HCl and 20 mM calcium chloride buffer (890–990 μL, pH 8.0), substrate (0–100 μL, 2 mg/mL in DMSO), and enzyme (10 μL, 0.02 mg TR/mL in 100 mM Tris–HCl and 20 mM calcium chloride (pH 8.0), 8.4 nM as final concentration) were mixed for enzyme bioactivity assays. The rate of hydrolysis was determined by recording the increase in absorbance at 412 nm for the first 45 s after mixing. KM and kcat values were calculated using Enzfitter software when plotting substrate concentration versus initial hydrolysis velocity. […]
Table S5. Char acterization and enzymatic activity of TR-pCBMA and inhibited pro- T R pol ymer h ybr i ds with different linkers between the inhibitory and cleavable peptide moieties.
SEC-M ALLS anal ysi s Michaelis-Menten parameters d
Mnb Mwb Đb DPc KM kcat kcat/KM samples kg mol-1 kg mol-1 (CBM A/inhibitor) (µM) (s-1) (µM-1 s-1) […]
SEC -MALLS and 1H NMR spectra. d conditions: [TR]0 = 8.4 nM, [Tos-GPR-pNA]0 = 0 - 302 µM, buffer 100 mM Tris-HCl and 20 mM CaCl2 (pH 8.0) at 37 °C. […]

[2] = [macromonomer]0 = 50 µM, [TosGPRpNA]0 = 0–241 µM
[3] = [macromonomer]0 = 100 µM, [TosGPRpNA]0 = 0–241 µM
[4] = [macromonomer]0 = 150 µM, [TosGPRpNA]0 = 0–241 µM
[5] = [macromonomer]0 = 200 µM, [TosGPRpNA]0 = 0–241 µM
[6] = [TR]0 = 8.4 nM, [Tos-GPR-pNA]0 = 0–302 μM, 100 mM Tris–HCl and 20 mM CaCl2 (pH 8.0), 37 °C, absorbance 412 nm, first 45 s, Enzfitter

Molecule: Cc1ccc(S(=O)(=O)NCC(=O)N2CCC[C@H]2C(=O)N[C@@H](CCCNC(=N)N)C(=O)N2CCC[C@H]2C(=O)NCc2ccccc2)cc1 [Tos-Gly-Pro-Arg-Pro-NHBzl] (Tos-GPRP-NHBn)
- KM/Vmax (native trypsin; [inhibitor]0 = 125 µM, [TosGPRpNA]0 = 0–302 µM): 48.3 ± 4.1 s
- KM/Vmax (native trypsin; [inhibitor]0 = 250 µM, [TosGPRpNA]0 = 0–302 µM): 56.3 ± 5.0 s
- KM/Vmax (native trypsin; [inhibitor]0 = 375 µM, [TosGPRpNA]0 = 0–302 µM): 73.4 ± 3.7 s
- KM/Vmax (native trypsin; [inhibitor]0 = 500 µM, [TosGPRpNA]0 = 0–302 µM): 84.3 ± 6.0 s
- Ki (native trypsin; native TR): 430 µM

Molecule: COC(=O)CN(C)C(=O)[C@H](Cc1ccccc1)NC(=O)[C@@H]1CCCN1C(=O)[C@H](C)NC(=O)[C@H](C)NC(=O)C(C)C [isobutyryl-Ala-Ala-Pro-Phe-Sar-OMe] (Isobutyryl-AAPF[Sar]-OMe)
- Ki (native chymotrypsin): 660 µM
- KM/Vmax (native chymotrypsin; [inhibitor]0 = 125 µM): 62.9 ± 6.8 s
- KM/Vmax (native chymotrypsin; [inhibitor]0 = 250 µM): 75.9 ± 11.5 s
- KM/Vmax (native chymotrypsin; [inhibitor]0 = 375 µM): 84.8 ± 12.7 s
- KM/Vmax (native chymotrypsin; [inhibitor]0 = 500 µM): 99.6 ± 11.7 s

Molecule: IB-Ala-Ala-Pro-Phe-Sar-PEG4-Gly-Pro-Arg-Gly-Gly-OEGMA [IBAAPFSarPEG4GPRGGOEGMA]
- KM/Vmax (native chymotrypsin; [macromonomer]0 = 100 µM): 61.8 ± 6.2 s
- apparent Vmax (native chymotrypsin; [macromonomer]0 = 100 µM): 1.25 ± 0.03 µM/s
- kcat (native chymotrypsin; [macromonomer]0 = 100 µM): 34.8 ± 0.8 s⁻¹
- kcat/KM (native chymotrypsin; [macromonomer]0 = 100 µM): 450000 ± 50000 M⁻¹ s⁻¹
- Km (native chymotrypsin; [macromonomer]0 = 100 µM): 77.5 ± 7.6 µM
- KM/Vmax (native chymotrypsin; [macromonomer]0 = 200 µM): 65.3 ± 6.9 s
- apparent Vmax (native chymotrypsin; [macromonomer]0 = 200 µM): 1.25 ± 0.03 µM/s
- kcat (native chymotrypsin; [macromonomer]0 = 200 µM): 34.9 ± 0.8 s⁻¹
- kcat/KM (native chymotrypsin; [macromonomer]0 = 200 µM): 430000 ± 40000 M⁻¹ s⁻¹
- Km (native chymotrypsin; [macromonomer]0 = 200 µM): 82.1 ± 8.4 µM
- KM/Vmax (native chymotrypsin; [macromonomer]0 = 300 µM): 72.9 ± 7.1 s
- apparent Vmax (native chymotrypsin; [macromonomer]0 = 300 µM): 1.18 ± 0.03 µM/s
- kcat (native chymotrypsin; [macromonomer]0 = 300 µM): 32.8 ± 0.7 s⁻¹
- kcat/KM (native chymotrypsin; [macromonomer]0 = 300 µM): 380000 ± 730000 M⁻¹ s⁻¹
- Km (native chymotrypsin; [macromonomer]0 = 300 µM): 86.1 ± 8.1 µM
- KM/Vmax (native chymotrypsin; [macromonomer]0 = 400 µM): 89.4 ± 11.8 s
- apparent Vmax (native chymotrypsin; [macromonomer]0 = 400 µM): 1.12 ± 0.04 µM/s
- kcat (native chymotrypsin; [macromonomer]0 = 400 µM): 31.0 ± 1.0 s⁻¹
- kcat/KM (native chymotrypsin; [macromonomer]0 = 400 µM): 310000 ± 40000 M⁻¹ s⁻¹
- Km (native chymotrypsin; [macromonomer]0 = 400 µM): 99.7 ± 12.6 µM
- Ki relative to KM (90 μM) of suc-Ala-Ala-Pro-Phe-pNA (native chymotrypsin; native CT): 2.8 fold
- Ki (native chymotrypsin; native CT, substrate suc-AAPF-pNA, 100 mM sodium phosphate (pH 8.0), 37 °C, [CT]0 = 40 nM, from secondary plot KM/Vmax app vs [I]0, read-out: Ki): 260 µM

Molecule: N-Tosyl-glycyl-L-prolyl-L-arginine p-nitroanilide acetate salt [Tos-Gly-Pro-Arg-pNA, reference compound]
- Km ([1]; rounded value in comparison with Ki, read-out: KM of the peptide substrate for native TR): 20 µM

Molecule: Tos-Gly-Pro-Arg-Pro-PEG4-Ala-Ala-Pro-Phe-Ala-Ala-OEGMA (Tos-GPRP[PEG4]AAPFAA-{OEGMA}) [TosGPRPro-PEG4-AAPFAA OEGMA]
- Ki (native trypsin; native TR): 150 µM

Molecule: Tos-Gly-Pro-Arg-Pro-PEG4-Ala-Ala-Pro-Phe-Ala-Ala-OEGMA [TosGPRPro-PEG4-AAPFAA OEGMA]
- KM/Vmax (native trypsin; [2]): 62.9 ± 7.3 s
- apparent Vmax (native trypsin; [2]): 0.45 ± 0.02 µM/s
- kcat (native trypsin; [2]): 53.4 ± 2.3 s⁻¹
- kcat/KM (native trypsin; [2]): 1.89e+06 ± 310000 M⁻¹ s⁻¹
- Km (native trypsin; [2]): 28.2 ± 4.5 µM
- KM/Vmax (native trypsin; [3]): 77.9 ± 6.3 s
- apparent Vmax (native trypsin; [3]): 0.24 ± 0.01 µM/s
- kcat (native trypsin; [3]): 28.7 ± 0.7 s⁻¹
- kcat/KM (native trypsin; [3]): 1.53e+06 ± 170000 M⁻¹ s⁻¹
- Km (native trypsin; [3]): 18.8 ± 2.1 µM
- KM/Vmax (native trypsin; [4]): 86.3 ± 7.8 s
- apparent Vmax (native trypsin; [4]): 0.31 ± 0.01 µM/s
- kcat (native trypsin; [4]): 36.5 ± 1.4 s⁻¹
- kcat/KM (native trypsin; [4]): 1.38e+06 ± 180000 M⁻¹ s⁻¹
- Km (native trypsin; [4]): 26.4 ± 3.2 µM
- KM/Vmax (native trypsin; [5]): 97.7 ± 12.1 s
- apparent Vmax (native trypsin; [5]): 0.36 ± 0.02 µM/s
- kcat (native trypsin; [5]): 43.3 ± 2.1 s⁻¹
- kcat/KM (native trypsin; [5]): 1.22e+06 ± 210000 M⁻¹ s⁻¹
- Km (native trypsin; [5]): 35.5 ± 6 µM
- Ki relative to KM (20 μM) of Tos-Gly-Pro-Arg-pNA (native trypsin; native TR): ~7.5 fold

B1: trypsin from bovine pancreas, Type I (protein, UniProt P00760 24-246, looked up)
Serine protease 1: T1 sequence (P00760 24-246)
notes: trypsin from bovine pancreas, Type I (TR), Sigma-Aldrich
- kcat [1, 6]: 63.5 s^–1 and 63.5 ± 1.3 s^–1
- kcat/KM [1, 6]: 2.87 ± 0.25 μM^–1 s^–1
- Km ([1]; [TR]0 = 8.4 nM, [Tos-GPR-pNA]0 = 0–302 μM, 100 mM Tris–HCl and 20 mM CaCl2 (pH 8.0), 37 °C, absorbance 412 nm, first 45 s, Enzfitter, read-out: KM): 22.2 ± 1.9 µM
